Assay results as given in patent US7138361B2, “Herbicidal heterocycles” (E. I. du Pont de Nemours and Company, priority 2000, dated 2006).

Legend:
Type in all cases: in vivo
[1] = system: lambsquarters (Chenopodium album); test: Test B preemergence
In short: (§1)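 Ratings on a 0 to 100 visual scale (100 complete control) compare treated plants with controls 13 to 15 days after application. Treatments were pre- or postemergence sprays of compound in non-phytotoxic solvent with surfactant.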

[2] = system: pigweed (Amaranthus retroflexus); test: Test B preemergence
In short: as §1

[3] = system: crabgrass (Digitaria sanguinalis); test: Test B preemergence
In short: as §1

[4] = system: barnyardgrass (Echinochloa crus-galli); test: Test B preemergence
In short: as §1

[5] = system: Surinam grass (Brachiaria decumbens); test: Test B preemergence
In short: as §1

[6] = system: morning glory (Ipomoea hederacea); test: Test B preemergence
In short: as §1

corn (Zea mays) [7] = test: Test B preemergence
In short: as §1

[8] = system: giant foxtail (Setaria faberii); test: Test B preemergence
In short: as §1

[9] = system: cocklebur (Xanthium strumarium); test: Test B preemergence
In short: as §1

[10] = system: velvetleaf (Abutilon theophrasti); test: Test B preemergence
In short: as §1

rice (Oryza saliva) = test: Test B preemergence
In short: as §1

Sunflower = test: Test C preemergence; conditions: Rate 500 g/ha, visual evaluation after 12 to 14 days
[11] = system: barnyardgrass (Echinochloa crus-galli); test: Test C flooded paddy test; conditions: for Barnyardgrass plant response rating: Flooded Paddy, Rate 500 g/ha, scale 0 to 100, 0 no effect, 100 complete control; for Plant response rating, Barnyardgrass / Plant response rating (scale 0 to 100), Barnyardgrass: flooded paddy test; for Plant response rating, Barnyardgrass: scale 0 to 100 (0 no effect, 100 complete control); for Plant response rating (scale 0 to 100), Barnyardgrass: Rate 62 g/ha, visually evaluated after 12 to 14 days, 0 = no effect, 100 = complete control
In short: (§2)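 Ratings come from visual comparison with control plants after 12 to 14 days in the greenhouse. Each species was at the 2-leaf stage when the flooded paddy was treated. Scores run from 0, meaning no effect, to 100, meaning complete control.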

[12] = system: duck salad (Heteranthera limosa); test: Test C flooded paddy test; conditions: for Ducksalad plant response rating: Flooded Paddy, Rate 500 g/ha, scale 0 to 100, 0 no effect, 100 complete control; for Plant response rating, Ducksalad / Plant response rating (scale 0 to 100), Ducksalad: flooded paddy test; for Plant response rating, Ducksalad: scale 0 to 100 (0 no effect, 100 complete control); for Plant response rating (scale 0 to 100), Ducksalad: Rate 62 g/ha, visually evaluated after 12 to 14 days, 0 = no effect, 100 = complete control
In short: as §2

[13] = system: lambsquarters (Chenopodium album); test: Test B postemergence
In short: as §1

[14] = system: pigweed (Amaranthus retroflexus); test: Test B postemergence
In short: as §1

[15] = system: crabgrass (Digitaria sanguinalis); test: Test B postemergence
In short: as §1

[16] = system: barnyardgrass (Echinochloa crus-galli); test: Test B postemergence
In short: as §1

wild oat (Avena fatua) = test: Test B postemergence
In short: as §1

[17] = system: Surinam grass (Brachiaria decumbens); test: Test B postemergence
In short: as §1

[18] = system: morning glory (Ipomoea hederacea); test: Test B postemergence
In short: as §1

corn (Zea mays) [19] = test: Test B postemergence
In short: as §1

[20] = system: giant foxtail (Setaria faberii); test: Test B postemergence
In short: as §1

[21] = system: cocklebur (Xanthium strumarium); test: Test B postemergence
In short: as §1

[22] = system: velvetleaf (Abutilon theophrasti); test: Test B postemergence
In short: as §1

[23] = system: wheat (Triticum aestivum); test: Test B postemergence
In short: as §1

[24] = system: blackgrass (Alopecurus myosuroides); test: Test B postemergence
In short: as §1

[25] = Preemergence, Rate 500 g/ha, scale 0 to 100, 0 no effect, 100 complete control
[26] = preemergence, Rate 125 g/ha, scale of 0 to 100 where 0 is no effect and 100 is complete control, 13 to 15 days
[27] = Rate 125 g/ha, scale 0 to 100, 0 no effect, 100 complete control
[28] = Rate 500 g/ha, scale 0 (no effect) to 100 (complete control), 13 to 15 days

CCC(CC)c1ccn(C2CCN(c3ccc(Br)c(OC)c3)C2=O)n1 (stereo not drawn) [Compound 143]
95: Plant response rating, Ducksalad ([12]; Rate 250 g/ha)
45: Plant response rating (scale 0 to 100), Ducksalad [12]
100: Plant response rating, Lambsquarters [1, 25] | Plant response rating, Lambsquarters [1, 26] | Plant response rating, Pigweed [2, 25] | Plant response rating, Pigweed [2, 26] | Plant response rating, Crabgrass [3, 25] | Plant response rating, Crabgrass [3, 26] | Plant response rating, Barnyardgrass [4, 25] | Plant response rating, Barnyardgrass [4, 26] | Plant response rating, Foxtail, Giant [8, 25] | Plant response rating, Foxtail, Giant [8, 26] | Barnyardgrass plant response rating [11] | Plant response rating, Barnyardgrass ([11]; Rate 125 g/ha) | Plant response rating, Barnyardgrass ([11]; Rate 250 g/ha) | Ducksalad plant response rating [12] | Plant response rating, Lambsquarters [13, 28] | Plant response rating, Morningglory [18, 28] | Plant response rating, Cocklebur [21, 28]
50: Plant response rating, Velvetleaf [22, 27]
70: Plant response rating, Morningglory [6, 25] | Plant response rating, Pigweed [14, 27] | Plant response rating, Barnyardgrass [16, 28] | Plant response rating, Velvetleaf [22, 28]
55: Plant response rating (scale 0 to 100), Barnyardgrass [11]
60: Plant response rating, Velvetleaf [10, 26]
90: Plant response rating, Surinam grass [5, 25] | Plant response rating (0 to 100), Sunflower (Sunflower) | Plant response rating, Pigweed [14, 28]
75: Plant response rating, Ducksalad ([12]; Rate 125 g/ha)
20: Plant response rating, Morningglory [6, 26] | Plant response rating, Corn (corn (Zea mays) [7]; [25])
30: Plant response rating, Cocklebur [9, 25] | Plant response rating, Rice (rice (Oryza saliva); [25]) | Plant response rating, Morningglory [18, 27] | Plant response rating, Foxtail, Giant [20, 27]
80: Plant response rating, Surinam grass [5, 26] | Plant response rating, Velvetleaf [10, 25] | Plant response rating, Lambsquarters [13, 27] | Plant response rating, Crabgrass [15, 28] | Plant response rating, Foxtail, Giant [20, 28]
0: Plant response rating, Corn (corn (Zea mays) [7]; [26]) | Plant response rating, Cocklebur [9, 26] | Plant response rating, Rice (rice (Oryza saliva); [26]) | Plant response rating, Crabgrass [15, 27] | Plant response rating, Barnyardgrass [16, 27] | Plant response rating, Wild Oat (wild oat (Avena fatua); [27]) | Plant response rating, Wild Oat (wild oat (Avena fatua); [28]) | Plant response rating, Surinam grass [17, 27] | Plant response rating, Surinam grass [17, 28] | Plant response rating, Corn (corn (Zea mays) [19]; [27]) | Plant response rating, Corn (corn (Zea mays) [19]; [28]) | Plant response rating, Cocklebur [21, 27] | Plant response rating, Wheat [23, 27] | Plant response rating, Wheat [23, 28] | Plant response rating, Blackgrass [24, 27] | Plant response rating, Blackgrass [24, 28]

CCC(CC)c1ccn(C2CCN(c3ccc(F)c(C(F)(F)F)c3)C2=O)n1 (stereo not drawn) [Compound 144]
40: Plant response rating, Crabgrass [15, 28] | Plant response rating, Foxtail, Giant [20, 28]
70: Plant response rating, Surinam grass [5, 25] | Plant response rating (0 to 100), Sunflower (Sunflower)
20: Plant response rating, Corn (corn (Zea mays) [7]; [25]) | Plant response rating, Foxtail, Giant [20, 27]
100: Plant response rating, Lambsquarters [1, 25] | Plant response rating, Lambsquarters [1, 26] | Plant response rating, Pigweed [2, 25] | Plant response rating, Pigweed [2, 26] | Plant response rating, Crabgrass [3, 25] | Plant response rating, Crabgrass [3, 26] | Plant response rating, Barnyardgrass [4, 25] | Plant response rating, Foxtail, Giant [8, 25] | Plant response rating, Foxtail, Giant [8, 26] | Barnyardgrass plant response rating [11] | Plant response rating, Barnyardgrass ([11]; Rate 125 g/ha) | Plant response rating, Barnyardgrass ([11]; Rate 250 g/ha) | Plant response rating (scale 0 to 100), Barnyardgrass [11] | Ducksalad plant response rating [12] | Plant response rating, Lambsquarters [13, 27] | Plant response rating, Lambsquarters [13, 28] | Plant response rating, Pigweed [14, 28]
30: Plant response rating, Morningglory [18, 28] | Plant response rating, Cocklebur [21, 28]
95: Plant response rating, Ducksalad ([12]; Rate 250 g/ha)
50: Plant response rating, Ducksalad ([12]; Rate 125 g/ha) | Plant response rating (scale 0 to 100), Ducksalad [12] | Plant response rating, Pigweed [14, 27]
80: Plant response rating, Barnyardgrass [4, 26]
0: Plant response rating, Surinam grass [5, 26] | Plant response rating, Morningglory [6, 25] | Plant response rating, Morningglory [6, 26] | Plant response rating, Corn (corn (Zea mays) [7]; [26]) | Plant response rating, Cocklebur [9, 25] | Plant response rating, Cocklebur [9, 26] | Plant response rating, Velvetleaf [10, 25] | Plant response rating, Velvetleaf [10, 26] | Plant response rating, Rice (rice (Oryza saliva); [25]) | Plant response rating, Rice (rice (Oryza saliva); [26]) | Plant response rating, Crabgrass [15, 27] | Plant response rating, Barnyardgrass [16, 27] | Plant response rating, Barnyardgrass [16, 28] | Plant response rating, Wild Oat (wild oat (Avena fatua); [27]) | Plant response rating, Wild Oat (wild oat (Avena fatua); [28]) | Plant response rating, Surinam grass [17, 27] | Plant response rating, Surinam grass [17, 28] | Plant response rating, Morningglory [18, 27] | Plant response rating, Corn (corn (Zea mays) [19]; [27]) | Plant response rating, Corn (corn (Zea mays) [19]; [28]) | Plant response rating, Cocklebur [21, 27] | Plant response rating, Velvetleaf [22, 27] | Plant response rating, Velvetleaf [22, 28] | Plant response rating, Wheat [23, 27] | Plant response rating, Wheat [23, 28] | Plant response rating, Blackgrass [24, 27] | Plant response rating, Blackgrass [24, 28]
